Reference: US9801381B2, “Form of rimsulfuron, a process for its preparation and use of the same” (ROTAM AGROCHEM INTERNATIONAL COMPANY LIMITED, priority 2015, dated 2017)
Where two headings read alike, the source gives them in different places.

Assays:
[1] = format: physicochemical; details: pH 7 buffer, test temperature e.g. 20° C.
[2] = Cleanout test (rimsulfuron residue in polyethylene bottles after rinsing, extracted with acetonitrile); format: physicochemical; details: for Cleanout rating, % (concentration of rimsulfuron herbicide in the acetonitrile solution): dispersed in tap water, stood overnight, lower rating = more effective cleanout
Procedure: The cleanout test was conducted by dispersing in water a sample to produce a concentration that is normally used when applying the herbicide: 25% rimsulfuron. The sample was added to tap water (300 mL) in a 400 mL beaker and magnetically stirred for 2 minutes. The mixture was then stirred for 2 minutes, whereupon the resulting dispersion was dispensed in three 100 mL aliquots to 4-oz (118 mL) polyethylene bottles. The bottles were capped, inverted twice and allowed to stand overnight.
After standing overnight, each individual bottle was inverted twice and the liquid contents were then poured out. Tap water (10 mL) was added and the bottle was inverted until all sediment was re-suspended, whereupon the contents were poured out. Tap water (100 mL) was added and the bottle was inverted twice and then allowed to stand undisturbed for 10 minutes. The bottle was inverted twice more and the contents were poured out. Acetonitrile (10 mL) was added to the bottle to extract any remaining material. The acetonitrile solution was analyzed by reversed-phase liquid chromatography with UV detection. The cleanout rating (the concentration of rimsulfuron herbicide in the acetonitrile solution) is reported in % in Table 6 below.

[3] = format: physicochemical
Procedure: A stock pH 7 buffer solution was prepared by adding aqueous sodium hydroxide solution (0.1 M, 145 mL) to aqueous potassium dihydrogen phosphate solution (0.1 M, 250 mL), and then adding sufficient distilled water to adjust the final volume to 500 mL. At least 1 time and up to about 5 times the amount of rimsulfruon needed for saturation was added to a mixing vessel containing stock buffer solution at the test temperature (e.g., 20° C.). The mixture was magnetically stirred in the dark while being maintained at the test temperature. Samples were periodically removed for analysis. The samples were centrifuged using a high speed, temperature-controlled centrifuge at the test temperature for about 20 minutes at ≧12000 G to remove suspended particles. An aliquot of each supernatant was taken for analysis. The concentration of rimsulfuron in the supernatant was determined by a high pressure liquid chromatography (HPLC) with a reversed phase chromatography column and UV detection. The method should include development of best-fit calibration curves based on at least three standards using linear regression analysis Samples were successively withdrawn from the mixing vessel and analyzed until three successive samples show little or no variation in concentration. The test is preferably replicated to ensure accuracy.

[4] = OD formulation, original concentration 40%
[5] = SG formulation, original concentration 25%
[6] = WG formulation, original concentration 25%

Row | Compound | Concentration measured by HPLC after treatment, % [1, 4] [%] | Concentration measured by HPLC after treatment, % [1, 5] [%] | Concentration measured by HPLC after treatment, % [1, 6] [%] | Cleanout rating, % (concentration of rimsulfuron herbicide in the acetonitrile solution) ([2]; OD formulation) [%] | Cleanout rating, % (concentration of rimsulfuron herbicide in the acetonitrile solution) ([2]; SG formulation) [%] | Cleanout rating, % (concentration of rimsulfuron herbicide in the acetonitrile solution) ([2]; WG formulation) [%] | Cleanout properties compared with the known amorphous rimsulfuron product (in words) ([2]; summary of Table 6) | Solubility compared with amorphous rimsulfuron (in words) [3]
1 | CCS(=O)(=O)c1cccnc1S(=O)(=O)NC(=O)Nc1nc(OC)cc(OC)n1 [Amorphous Rimsulfuron, prepared in Example 1] [1-(4,6-dimethoxypyrimidin-2-yl)-3-(3-ethylsulfonyl-2-pyridylsulfonyl)urea, reference compound] | 14 | 15 | 12 | 26 | 10 | 13 | – | –
2 | CCS(=O)(=O)c1cccnc1S(=O)(=O)NC(=O)Nc1nc(OC)cc(OC)n1 [Rimsulfuron, crystal form A, 98%, prepared in Example 2] [1-(4,6-dimethoxypyrimidin-2-yl)-3-(3-ethylsulfonyl-2-pyridylsulfonyl)urea] | 35 | 24.9 | 23 | 5 | 0.1 | 2 | markedly superior cleanout properties | significant increase in its solubility
